# Where a name gives a salt, the structure may show the parent alone.
# Biological target: T1, wild-type human ALK (cytoplasmic domain, amino acids 1058-1620, N-terminal GST fusion) (Homo sapiens, UniProt Q9UM73)
# T1 construct: The cytoplasmic domain (amino acids 1058-1620) of wild-type human ALK; GST (N); made in house; host or cells: SF9 insect cells
# Assay: ALK Inhibition in Enzyme Assay (Lance TR-FRET kinase assay)
# Type: biochemical
# In short: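 Purified enzyme phosphorylated a biotinylated peptide substrate for 90 minutes at room temperature. Reactions were stopped with 20 mM EDTA in 50 mM Tris (pH 7.5), 100 mM NaCl, 0.05% BSA, 0.1% Tween-20. Phosphopeptide was detected by TR-FRET with SA-APC and Eu-W1024 anti-phosphotyrosine antibody PT66, excitation 320 nm.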
# T1 sequence (Q9UM73 1058-1620): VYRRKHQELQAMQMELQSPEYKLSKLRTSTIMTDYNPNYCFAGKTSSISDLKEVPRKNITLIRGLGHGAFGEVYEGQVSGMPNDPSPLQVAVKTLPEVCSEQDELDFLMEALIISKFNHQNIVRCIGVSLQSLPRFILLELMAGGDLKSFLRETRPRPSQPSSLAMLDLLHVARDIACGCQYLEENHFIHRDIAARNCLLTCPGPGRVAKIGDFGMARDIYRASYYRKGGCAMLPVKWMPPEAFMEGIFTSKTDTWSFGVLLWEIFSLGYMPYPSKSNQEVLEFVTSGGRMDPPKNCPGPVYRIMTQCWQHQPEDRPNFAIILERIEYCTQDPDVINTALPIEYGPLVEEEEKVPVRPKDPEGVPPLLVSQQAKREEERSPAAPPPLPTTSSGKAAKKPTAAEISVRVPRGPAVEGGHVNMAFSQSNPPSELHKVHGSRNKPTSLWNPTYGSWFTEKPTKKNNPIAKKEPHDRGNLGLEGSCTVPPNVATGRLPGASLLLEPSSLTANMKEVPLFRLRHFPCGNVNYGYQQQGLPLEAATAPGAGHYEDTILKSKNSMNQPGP
row,IC50 [nM],SMILES
1,< 50,"CONC(=O)[C@H]1CC[C@@H](n2/c(=N/C(=O)c3ccc(F)cc3)[nH]c3ccc(CN4CCC(C(C)(C)O)CC4)cc32)CC1 [Example 213, (E)-4-Fluoro-N-(6-((4-(2-hydroxypropan-2-yl)piperidin-1-yl)methyl)-1-(cis-4-(methoxycarbamoyl)cyclohexyl)-1H-benzo[d]imidazol-2(3H)-ylidene)benzamide]"
2,< 50,"CC(C)(CO)NC(=O)[C@H]1CC[C@@H](n2/c(=N/C(=O)c3ccc(F)cc3)[nH]c3ccc(CN4CCC(C(C)(C)O)CC4)cc32)CC1 [Example 214, (E)-4-Fluoro-N-(1-(cis-4-(1-hydroxy-2-methylpropan-2-ylcarbamoyl)cyclohexyl)-6-((4-(2-hydroxypropan-2-yl)piperidin-1-yl)methyl)-1H-benzo[d]imidazol-2(3H)-ylidene)benzamide]"
3,< 50,"CC(C)(C)NC(=O)[C@H]1CC[C@@H](n2/c(=N/C(=O)c3ccc(F)cc3)[nH]c3ccc(CN4CCC(C(C)(C)O)CC4)cc32)CC1 [Example 215, (E)-N-(1-(cis-4-(tert-Butylcarbamoyl)cyclohexyl)-6-((4-(2-hydroxypropan-2-yl)piperidin-1-yl)methyl)-1H-benzo[d]imidazol-2(3H)-ylidene)-4-fluorobenzamide]"
4,< 50,"CC(C)(O)C1CCN(Cc2ccc3[nH]/c(=N\C(=O)c4ccc(F)cc4)n([C@H]4CC[C@@H](C(=O)N5CCCCC5)CC4)c3c2)CC1 [Example 216, (E)-4-Fluoro-N-(6-((4-(2-hydroxypropan-2-yl)piperidin-1-yl)methyl)-1-(cis-4-(piperidine-1-carbonyl)cyclohexyl)-1H-benzo[d]imidazol-2(3H)-ylidene)benzamide]"
5,< 50,"CC(C)NC(=O)[C@H]1CC[C@@H](n2/c(=N/C(=O)c3ccc(F)cc3)[nH]c3ccc(N4CCOCC4)cc32)CC1 [Example 218, (E)-4-Fluoro-N-(1-(cis-4-(isopropylcarbamoyl)cyclohexyl)-6-morpholino-1H-benzo[d]imidazol-2(3H)-ylidene)benzamide]"
6,< 50,"CC(C)NC(=O)[C@H]1CC[C@@H](n2/c(=N/C(=O)c3ccc(F)cc3)[nH]c3ccc(Cl)cc32)CC1 [Example 219, (E)-N-(6-Chloro-1-(cis-4-(isopropylcarbamoyl)cyclohexyl)-1H-benzo[d]imidazol-2(3H)-ylidene)-4-fluorobenzamide]"
7,< 50,"CC(C)NC(=O)[C@H]1CC[C@@H](n2/c(=N/C(=O)c3ccc(F)cc3)[nH]c3ccc(F)cc32)CC1 [Example 220, (E)-4-Fluoro-N-(6-fluoro-1-(cis-4-(isopropylcarbamoyl)cyclohexyl)-1H-benzo[d]imidazol-2(3H)-ylidene)benzamide]"
8,< 50,"CC(C)NC(=O)[C@H]1CC[C@@H](n2/c(=N/C(=O)c3ccc(F)cc3)[nH]c3ccc(-n4cncn4)cc32)CC1 [Example 221, (E)-4-Fluoro-N-(1-(cis-4-(isopropylcarbamoyl)cyclohexyl)-6-(1H-1,2,4-triazol-1-yl)-1H-benzo[d]imidazol-2(3H)-ylidene)benzamide]"
9,< 50,"CC(C)NC(=O)[C@H]1CC[C@@H](n2/c(=N/C(=O)c3ccc(F)cc3)[nH]c3cnc(N4CCOCC4)cc32)CC1 [Example 222, (E)-4-Fluoro-N-(1-(cis-4-(isopropylcarbamoyl)cyclohexyl)-6-morpholino-1H-imidazo[4,5-c]pyridin-2(3H)-ylidene)benzamide]"
10,< 50,"CC(C)NC(=O)[C@H]1CC[C@@H](n2/c(=N/C(=O)c3ccc(F)cc3)[nH]c3cnc(N4CCS(=O)(=O)CC4)cc32)CC1 [Example 223, N-((2E)-6-(1,1-Dioxido-4-thiomorpholinyl)-1-(cis-4-((1-methylethyl)carbamoyl)cyclohexyl)-1,3-dihydro-2H-imidazo[4,5-c]pyridin-2-ylidene)-4-fluorobenzamide]"
11,< 50,"CC(C)NC(=O)[C@H]1CC[C@@H](n2/c(=N/C(=O)c3ccc(F)cc3)[nH]c3cnc(N4CCN(S(C)(=O)=O)CC4)cc32)CC1 [Example 224, (E)-4-Fluoro-N-(1-(cis-4-(isopropylcarbamoyl)cyclohexyl)-6-(4-(methylsulfonyl)-piperazin-1-yl)-1H-imidazo[4,5-c]pyridin-2(3H)-ylidene)benzamide]"
12,< 50,"CC(C)NC(=O)[C@H]1CC[C@@H](n2/c(=N/C(=O)c3ccc(F)cc3)[nH]c3cnc(N4CCN(C)CC4)cc32)CC1 [Example 225, (E)-4-Fluoro-N-(1-(cis-4-(isopropylcarbamoyl)cyclohexyl)-6-(4-methylpiperazin-1-yl)-1H-imidazo[4,5-c]pyridin-2(3H)-ylidene)benzamide]"
13,< 50,"CC(C)NC(=O)[C@H]1CC[C@@H](n2/c(=N/C(=O)c3ccc(F)cc3)[nH]c3cnc(NCC(C)(C)O)cc32)CC1 [Example 226, (E)-4-Fluoro-N-(6-(2-hydroxy-2-methylpropylamino)-1-(cis-4-(isopropylcarbamoyl)cyclohexyl)-1H-imidazo[4,5-c]pyridin-2(3H)-ylidene)benzamide]"
14,50 to 100,"CC(C)C(=O)N[C@H]1CC[C@@H](n2/c(=N/C(=O)c3ccc(F)cc3)[nH]c3ccc(CN4CCC(C(C)(C)O)CC4)cc32)CC1 [Example 227, (E)-4-Fluoro-N-(6-((4-(2-hydroxypropan-2-yl)piperidin-1-yl)methyl)-1-(cis-4-isobutyramidocyclohexyl)-1H-benzo[d]imidazol-2(3H)-ylidene)benzamide]"
15,100 to 1000,"CC(C)C(=O)N[C@H]1CC[C@@H](n2/c(=N/C(=O)c3cccc(F)c3)[nH]c3ccc(CN4CCC(C(C)(C)O)CC4)cc32)CC1 [Example 228, (E)-3-Fluoro-N-(6-((4-(2-hydroxypropan-2-yl)piperidin-1-yl)methyl)-1-(cis-4-isobutyramidocyclohexyl)-1H-benzo[d]imidazol-2(3H)-ylidene)benzamide]"
16,50 to 100,"CC(=O)N[C@H]1CC[C@H](n2/c(=N/C(=O)c3ccc(F)cc3)[nH]c3ccc(CN4CCC(C(C)(C)O)CC4)cc32)CC1 [Example 229, (E)-N-(1-(trans-4-Acetamidocyclohexyl)-6-((4-(2-hydroxypropan-2-yl)piperidin-1-yl)methyl)-1H-benzo[d]imidazol-2(3H)-ylidene)-4-fluorobenzamide]"
17,< 50,"CC(C)NC(=O)[C@H]1CC[C@@H](n2/c(=N/C(=O)c3ccc(F)cc3)[nH]c3ccc(CN4CCn5c(nnc5C(C)(C)O)C4)cc32)CC1 [Example 230, (E)-4-Fluoro-N-(6-((3-(2-hydroxypropan-2-yl)-5,6-dihydro-[1,2,4]-triazolo[4,3-a]pyrazin-7(8H)-yl)methyl)-1-(cis-4-(isopropylcarbamoyl)cyclohexyl)-1H-benzo[d]imidazol-2(3H)-ylidene)benzamide]"
18,< 50,CC(C)(O)C1CCN(Cc2ccc3[nH]/c(=N\C(=O)c4cccc(F)c4)n([C@H]4CC[C@@H](C(N)=O)CC4)c3c2)CC1 [Example 231]
19,< 50,"C=CCNS(=O)(=O)c1cccc(C(=O)/N=c2\[nH]c3ccc(CN4CCC(C(C)(C)O)CC4)cc3n2[C@H]2CC[C@@H](C(N)=O)CC2)c1 [Example 232, (E)-3-(N-Allylsulfamoyl)-N-(1-(cis-4-carbamoylcyclohexyl)-6-((4-(2-hydroxypropan-2-yl)piperidin-1-yl)methyl)-1H-benzo[d]imidazol-2(3H)-ylidene)benzamide]"
20,50 to 100,"CC(C)(O)C1CCN(Cc2ccc3[nH]/c(=N\C(=O)c4ccc(F)cc4)n([C@H]4CC[C@H](C(N)=O)CC4)c3c2)CC1 [Example 233, (E)-N-(1-(trans-4-Carbamoylcyclohexyl)-6-((4-(2-hydroxypropan-2-yl)piperidin-1-yl)methyl)-1H-benzo[d]imidazol-2(3H)-ylidene)-4-fluorobenzamide]"
21,100 to 1000,"CC(C)(O)C1CCN(Cc2ccc3[nH]/c(=N\C(=O)c4cccc(F)c4)n([C@H]4CC[C@H](C(N)=O)CC4)c3c2)CC1 [Example 234, (E)-N-(1-(trans-4-Carbamoylcyclohexyl)-6-((4-(2-hydroxypropan-2-yl)piperidin-1-yl)methyl)-1H-benzo[d]imidazol-2(3H)-ylidene)-3-fluorobenzamide]"
22,< 50,"C=CCNS(=O)(=O)c1cccc(C(=O)/N=c2\[nH]c3ccc(CN4CCC(C(C)(C)O)CC4)cc3n2[C@H]2CC[C@H](C(N)=O)CC2)c1 [Example 235, (E)-3-(N-Allylsulfamoyl)-N-(1-(trans-4-carbamoylcyclohexyl)-6-((4-(2-hydroxypropan-2-yl)piperidin-1-yl)methyl)-1H-benzo[d]imidazol-2(3H)-ylidene)benzamide]"
23,< 50,"CC(C)NC(=O)[C@H]1CC[C@@H](n2/c(=N/C(=O)c3ccc(F)cc3)[nH]c3cnc(S(C)(=O)=O)cc32)CC1 [Example 236, (E)-4-Fluoro-N-(1-(cis-4-(isopropylcarbamoyl)cyclohexyl)-6-(methylsulfonyl)-1H-imidazo[4,5-c]pyridin-2(3H)-ylidene)benzamide]"
24,100 to 1000,"COC(=O)Nc1nc2ccc(CN3CCCCC3)cc2n1[C@H]1CC[C@@H](C(=O)NC(C)C)CC1 [Example 237, Methyl 1-(cis-4-(isopropylcarbamoyl)cyclohexyl)-6-(piperidin-1-ylmethyl)-1H-benzo[d]imidazol-2-ylcarbamate]"
25,< 50,"CC(C)NC(=O)[C@H]1CC[C@@H](n2/c(=N/C(=O)c3ccc(F)cc3)[nH]c3ccc(S(C)(=O)=O)cc32)CC1 [Example 238, (E)-4-Fluoro-N-(1-(cis-4-(isopropylcarbamoyl)cyclohexyl)-6-(methylsulfonyl)-1H-benzo[d]imidazol-2(3H)-ylidene)benzamide]"

row,SMILES,IC50 [nM]
1,"CC(C)(O)C1CCN(Cc2ccc3[nH]/c(=N\C(=O)c4ccc(F)cc4)n([C@H]4CC[C@@H](C(=O)N5[C@@H]6CC[C@H]5CNC6)CC4)c3c2)CC1 [Example 217, (E)-N-(1-(cis-4-(3,8-Fiazabicyclo[3.2.1]octane-8-carbonyl)cyclohexyl)-6-((4-(2-hydroxypropan-2-yl)piperidin-1-yl)methyl)-1H-benzo[d]imidazol-2(3H)-ylidene)-4-fluorobenzamide dihydrochloride]",< 50

# — patent publication US9115127B2 (AMGEN INC., priority 2010, dated 2015)
